Measurements: patent US9089605B2, “Quinone derivatives, pharmaceutical compositions, and uses thereof” (Indiana University Research and Technology Corporation, priority 2007, dated 2015)

Legend:
[1] = tested on: cells; experiment: Growth inhibition assay (MTS); format: cell-based; settings: MTS, compound treatment 24 or 72 h; read-out: Cell Killing (GI50)
Method: Growth inhibitory data was also collected for all the compounds tested in the redox assay. Following the procedure of Fishel et al, cells were aliquoted into 96 well plates at a concentration of 2-4,000 cells/well in triplicate and allowed to adhere overnight. Cells were then treated with compound for either 24 or 72 h. 3-(4-5-Dimethylthiazol-2-yl)-5-(3-carboxymethoxyphenyl)-2-(4-sulfophenyl)-2H-tetrazolium salt (MTS) was added to the cells following compound treatment and the cells were incubated for an additional 4 hours at 37° C. After incubation with MTS the plates were measured for absorbance at 490 nm. The values were standardized to wells containing media alone.

[2] = target: Ape1 (Homo sapiens, UniProt P27695); experiment: Enzymatic redox assay (EMSA, AP-1 DNA binding); format: biochemical; settings: for IC50: EMSA, reduced Ape1, oxidized nuclear extracts (Hey-C2 cells), AP-1 DNA probe; for activity compared with the original carboxylic acids: hydroxyethylamides of 1 and 43a
Sequence of Ape1 (P27695 whole entry): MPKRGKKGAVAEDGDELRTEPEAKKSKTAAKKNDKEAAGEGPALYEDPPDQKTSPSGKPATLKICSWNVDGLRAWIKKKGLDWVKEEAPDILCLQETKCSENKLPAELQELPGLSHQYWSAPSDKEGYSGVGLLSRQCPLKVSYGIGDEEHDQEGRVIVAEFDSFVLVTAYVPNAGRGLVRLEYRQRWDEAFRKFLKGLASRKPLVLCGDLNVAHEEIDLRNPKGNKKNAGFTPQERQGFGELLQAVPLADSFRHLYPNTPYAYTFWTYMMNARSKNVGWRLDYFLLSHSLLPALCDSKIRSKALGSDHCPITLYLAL

Structure (SMILES) | melting point [°C] | GI50 [1] [µM] | IC50 [2] [µM] | activity compared with the original carboxylic acids [2]
C[C@@H]1NC(=O)N[C@@H]1CCCCCC(=O)NCCCCCCNC(=O)OC(C)(C)C (hydrate or solvate) [Compound 111, N—(N′-tert-butoxycarbonyl-6-aminohexyl)-6-[(4R,5S)-5-methyl-imidazolidin-2-on-4-yl]hexanamide] | 85 to 87 | – | – | –
CC1(C(=O)O)OC1C1=C(Cl)C(=O)c2ccccc2C1=O (mixture of isomers) [Compound 71, 3-(3-chloro-1,4-naphthoquinon-2-yl)-2-epoxy-2-methylpropionic acid] | – | 10 | 4 | –
CC(CC1=C(Br)C(=O)c2ccccc2C1=O)C(=O)O (racemic) [Compound 69b, (2R/S)-3-(3-bromo-1,4-naphthoquinon-2-yl)-2-methylpropionic acid] | – | 15 | 5 | –
CCCCCCCCC/C(=C\C1=C(C)C(=O)C(OC)=C(OC)C1=O)C(=O)O [Compound 1, (E)-3-(4,5-dimethoxy-2-methyl-3,6-dioxocyclohexa-1,4-dienyl)-2-nonylpropenoic acid, reference compound] | – | 35 | – | –
COC1=C(OC)C(=O)C(/C=C/C(=O)O)=C(C)C1=O [Compound 10a, (E)-3-(4,5-dimethoxy-2-methyl-3,6-dioxocyclohexa-1,4-dienyl)-propenoic acid] | – | 250 | 40 | –
CC/C(=C\C1=C(C)C(=O)C(OC)=C(OC)C1=O)C(=O)O [Compound 10c, (E)-3-(4,5-dimethoxy-2-methyl-3,6-dioxocyclohexa-1,4-dienyl)-2-ethylpropenoic acid] | 124 to 131 | – | – | –
CCC/C(=C\C1=C(C)C(=O)C(OC)=C(OC)C1=O)C(=O)O [Compound 10d, (E)-3-(4,5-dimethoxy-2-methyl-3,6-dioxocyclohexa-1,4-dienyl)-2-propylpropenoic acid] | 95 to 99 | – | – | –
C/C(=C\C1=CC(=O)c2ccccc2C1=O)C(=O)O [Compound 30a, (E)-3-(1,4-naphthoquinon-2-yl)-2-methylpropenoic acid] | – | 20 | 2.5 | –
CCC/C(=C\C1=CC(=O)c2ccccc2C1=O)C(=O)O [Compound 30b, (E)-3-(1,4-naphthoquinon-2-yl)-2-propylpropenoic acid] | 156 to 160 | – | – | –
CCCCCCCCC/C(=C\C1=C(C)C(=O)c2ccccc2C1=O)C(=O)O [Compound 35c, (E)-3-(3-methyl-1,4-naphthoquinon-2-yl)-2-nonylpropenoic acid] | 64 to 66 | – | – | –
C/C(=C\C1=C(Br)C(=O)c2ccccc2C1=O)C(=O)O [Compound 39a, (E)-3-(3-bromo-1,4-naphthoquinon-2-yl)-2-methylpropenoic acid] | – | 12.5 | 2 | –
C/C(=C\C1=C(F)C(=O)c2ccccc2C1=O)C(=O)O [Compound 52, (E)-3-(3-fluoro-1,4-naphthoquinon-2-yl)-2-methylpropenoic acid] | – | 50 | 4 | –
CCCCCCCCC/C(=C\C1=C(C)C(=O)C(OC)=C(OC)C1=O)C(=O)NCCO [Compound 72, (E)-N-(2-hydroxyethyl)-3-(3,4-dimethoxy-2-methyl-3,6-dioxocyclohexa-1,4-dienyl)-2-nonylpropenamide] | – | 35 | 10 | comparable in activity to the original carboxylic acids
C/C(=C\C1=C(Cl)C(=O)c2ccccc2C1=O)C(=O)NCCO [Compound 73, (E)-N-(2-hydroxyethyl)-3-(3-chloro-1,4-dioxonaphthoquinon-2-yl)-2-methylpropenamide] | – | 7.5 | – | comparable in activity to the original carboxylic acids
COC(=O)/C(C)=C/C1=C(Cl)C(=O)c2ccccc2C1=O [Compound E-44a] | – | 17.5 | 1 | –
COC(=O)/C(C)=C\C1=C(Cl)C(=O)c2ccccc2C1=O [Compound Z-44a, Methyl (2Z)-3-(3-chloro-1,4-naphthoquinon-2-yl)-2-methylpropenoate] | – | 20 | 2 | –
